Data as given in US9512107B2, “Therapeutically active compositions and their methods of use” (Agios Pharmaceuticals, Inc., priority 2012, dated 2016).
Numbering of substitutions follows the chain as printed.

Legend:
IDH2 R172K = biological target: T1, IDH2 R172K (Homo sapiens, UniProt P48735, R172K); experiment: IDH2 R172K enzymatic assay (NADPH cofactor depletion, diaphorase/resazurin readout); type: biochemical; details: read-out: Enz R172K
T1 sequence (P48735 40-452 R172K): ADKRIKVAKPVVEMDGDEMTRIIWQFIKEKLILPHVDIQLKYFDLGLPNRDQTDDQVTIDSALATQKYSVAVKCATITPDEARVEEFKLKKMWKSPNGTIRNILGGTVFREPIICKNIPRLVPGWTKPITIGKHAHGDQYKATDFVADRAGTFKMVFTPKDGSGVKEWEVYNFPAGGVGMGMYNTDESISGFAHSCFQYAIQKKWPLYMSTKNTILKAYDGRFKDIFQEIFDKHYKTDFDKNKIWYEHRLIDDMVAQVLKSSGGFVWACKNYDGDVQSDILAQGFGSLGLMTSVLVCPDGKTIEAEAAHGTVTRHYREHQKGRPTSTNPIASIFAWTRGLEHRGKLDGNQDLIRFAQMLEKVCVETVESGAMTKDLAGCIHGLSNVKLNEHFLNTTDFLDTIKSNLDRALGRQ
Method in brief: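 Test compounds are incubated with the mutant enzyme for one hour at ambient temperature. A substrate mix of 50 μM NADPH plus 6.3 mM α-KG initiates turnover, which proceeds for one hour. Diaphorase and resazurin then halt the reaction by depleting the cofactor and convert the remaining NADPH into a fluorescent signal.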

[1] = tested on: U87MG pLVX-IDH2 R140Q-neo cells; experiment: U87MG pLVX-IDH2 R140Q-neo cell based assay, 2-HG in media by LC-MS at 48 hours; details: Homo sapiens, U-87 MG
Method in brief: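 U87MG cells stably expressing IDH2 R140Q were seeded overnight, then exposed to compound at 0.2% final DMSO at 37 °C, 5% CO2. 2-HG in the medium was quantified by LC-MS at 48 h. Growth inhibition was read by CellTiter-Glo luminescence at 72 h.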

IDH2 R140Q = biological target: T2, IDH2 R140Q (Homo sapiens, UniProt P48735, R140Q); experiment: IDH2 R140Q enzymatic assay (cofactor depletion, similar format); type: biochemical; details: read-out: Enz R140Q
T2 sequence (P48735 40-452 R140Q): T1 sequence (P48735 40-452 R172K) with R101Q, K133R

SMILES | IC50 (IDH2 R172K) | IC50 [1] | IC50 (IDH2 R140Q)
CC(C)Nc1nc(Nc2ccnc(C(F)(F)F)c2)nc(-c2cc(O)ccc2F)n1 [Compound 634, 4-Fluoro-3-[4-isopropylamino-6-(2-trifluoromethyl-pyridin-4-ylamino)-[1,3,5]triazin-2-yl]-phenol] | < 100 nM | < 100 nM | 100 to 1000 nM
COc1ccc(F)c(-c2nc(Nc3ccnc(C(F)(F)F)c3)nc(NC3COC3)n2)c1 [Compound 635, 6-(2-Fluoro-5-methoxy-phenyl)-N-oxetan-3-yl-N′-(2-trifluoromethyl-pyridin-4-yl)-[1,3,5]triazine-2,4-diamine] | 100 to 1000 nM | 100 to 1000 nM | 100 to 1000 nM
Fc1cc(Nc2nc(NC3[C@H]4COC[C@@H]34)nc(-c3ccccc3F)n2)ccn1 (stereo partly drawn) [Compound 636, 6-(2-Fluoro-phenyl)-N-(2-fluoro-pyridin-4-yl)-N′-(3-oxa-bicyclo[3.1.6]hex-6-yl)-[1,3,5]triazine-2,4-diamine] | 100 to 1000 nM | < 100 nM | < 100 nM
Fc1ccc(Nc2nc(NC3[C@H]4COC[C@@H]34)nc(-c3ccccc3F)n2)cn1 (stereo partly drawn) [Compound 637, 6-(2-Fluoro-phenyl)-N-(6-fluoro-pyridin-3-yl)-N′-(3-oxa-bicyclo[3.1.0]hex-6-yl)-[1,3,5]triazine-2,4-diamine] | 100 to 1000 nM | < 100 nM | 100 to 1000 nM
Fc1cncc(Nc2nc(NC3[C@H]4COC[C@@H]34)nc(-c3ccccc3F)n2)c1 (stereo partly drawn) [Compound 638, 6-(2-Fluoro-phenyl)-N-(5-fluoro-pyridin-3-yl)-N′-(3-oxa-bicyclo[3.1.0]hex-6-yl)-[1,3,5]triazine-2,4-diamine] | 100 to 1000 nM | < 100 nM | 100 to 1000 nM
CC(C)Nc1nc(Nc2ccnc(C(F)(F)F)c2)nc(-c2cccc(CO)c2)n1 [Compound 639, {3-[4-Isopropylamino-6-(2-trifluoromethyl-pyridin-4-ylamino)-[1,3,5]triazin-2-yl]-phenyl}-methanol] | < 100 nM | < 100 nM | 100 to 1000 nM
CC(C)Nc1nc(Nc2ccnc(C(F)(F)F)c2)nc(-c2cccc(O)c2)n1 [Compound 640, 3-[4-Isopropylamino-6-(2-trifluoromethyl-pyridin-4-ylamino)-[1,3,5]triazin-2-yl]-phenol] | < 100 nM | < 100 nM | < 100 nM
CC(C)(O)CNc1nc(Nc2ccnc(C(F)(F)F)c2)nc(-c2cccc(O)c2)n1 [Compound 641, 3-(4-((2-hydroxy-2-methylpropyl)amino)-6-((2-(trifluoromethyl)pyridin-4-yl)amino)-1,3,5-triazin-2-yl)phenol] | < 100 nM | < 100 nM | 100 to 1000 nM
CC(C)Nc1nc(Nc2cc(F)cc(F)c2)nc(-c2cc(O)cc(O)c2)n1 [Compound 642, 5-(4-((3,5-difluorophenyl)amino)-6-(isopropylamino)-1,3,5-triazin-2-yl)benzene-1,3-diol] | < 100 nM | < 100 nM | 100 to 1000 nM
CC(C)Nc1nc(Nc2cc(F)cc(F)c2)nc(-c2ccc(N)nc2)n1 [Compound 645, 6-(6-aminopyridin-3-yl)-N2-(3,5-difluorophenyl)-N4-isopropyl-1,3,5-triazine-2,4-diamine] | 100 to 1000 nM | < 100 nM | 100 to 1000 nM
CC(C)(C)Nc1nc(Nc2cc(F)cc(S(C)(=O)=O)c2)nc(-c2cccc(O)c2)n1 [Compound 646, 3-(4-(tert-butylamino)-6-((3-fluoro-5-(methylsulfonyl)phenyl)amino)-1,3,5-triazin-2-yl)phenol] | < 100 nM | < 100 nM | 100 to 1000 nM
CC(C)Nc1nc(Nc2ccnc(C(F)(F)F)c2)nc(-c2cc(F)cc(Cl)c2)n1 [Compound 647, 6-(3-chloro-5-fluorophenyl)-N2-isopropyl-N4-(2-(trifluoromethyl)pyridin-4-yl)-1,3,5-triazine-2,4-diamine] | 100 to 1000 nM | < 100 nM | 100 to 1000 nM
COc1ncccc1-c1nc(Nc2ccnc(C(F)(F)F)c2)nc(NC(C)C)n1 [Compound 648, N2-isopropyl-6-(2-methoxypyridin-3-yl)-N4-(2-(trifluoromethyl)pyridin-4-yl)-1,3,5-triazine-2,4-diamine] | 100 to 1000 nM | < 100 nM | 100 to 1000 nM
CC(C)Nc1nc(Nc2cc(F)cc(F)c2)nc(-c2cnc(N)nc2)n1 [Compound 649, 6-(2-aminopyrimidin-5-yl)-N2-(3,5-difluorophenyl)-N4-isopropyl-1,3,5-triazine-2,4-diamine] | 100 to 1000 nM | 100 to 1000 nM | < 100 nM
CC(C)Nc1nc(Nc2ccnc(C(F)(F)F)c2)nc(-c2cccc(=O)[nH]2)n1 [Compound 650, 6-(4-(isopropylamino)-6-((2-(trifluoromethyl)pyridin-4-yl)amino)-1,3,5-triazin-2-yl)pyridin-2(1H)-one] | 1000 to 10000 nM | 100 to 1000 nM | 100 to 1000 nM
CC(C)Nc1nc(Nc2ccnc(C(F)(F)F)c2)nc(-c2cccc(C(N)=O)c2)n1 [Compound 651] | 100 to 1000 nM | < 100 nM | 100 to 1000 nM
CC(C)Nc1nc(Nc2ccnc(C(F)(F)F)c2)nc(-c2cccc(C(O)C(F)(F)F)c2)n1 (stereo not drawn) [Compound 652, 2,2,2-trifluoro-1-(3-(4-(isopropylamino)-6-((2-(trifluoromethyl)pyridin-4-yl)amino)-1,3,5-triazin-2-yl)phenyl)ethanol] | 100 to 1000 nM | 100 to 1000 nM | 100 to 1000 nM
CC(C)Nc1nc(Nc2ccnc(C(F)(F)F)c2)nc(-c2cccc([S+](C)[O-])c2)n1 (stereo not drawn) [Compound 653, N-Isopropyl-6-(3-methanesulfinyl-phenyl)-N′-(2-trifluoromethyl-pyridin-4-yl)-[1,3,5]triazine-2,4-diamine] | 100 to 1000 nM | < 100 nM | 100 to 1000 nM
CC(C)Nc1nc(Nc2ccnc(C(F)(F)F)c2)nc(-c2cccc(CN)c2)n1 [Compound 654, 6-(3-(aminomethyl)phenyl)-N2-isopropyl-N4-(2-(trifluoromethyl)pyridin-4-yl)-1,3,5-triazine-2,4-diamine] | > 10000 nM | < 100 nM | 100 to 1000 nM
COc1cc(Cl)cc(-c2nc(Nc3ccnc(C(F)(F)F)c3)nc(NC(C)C)n2)c1 [Compound 655, 6-(3-chloro-5-methoxyphenyl)-N2-isopropyl-N4-(2-(trifluoromethyl)pyridin-4-yl)-1,3,5-triazine-2,4-diamine] | 100 to 1000 nM | 100 to 1000 nM | 100 to 1000 nM
CC(C)Nc1nc(Nc2ccnc(C(F)(F)F)c2)nc(-c2cccc(S(C)(=O)=O)c2)n1 [Compound 657, N-Isopropyl-6-(3-methanesulfonyl-phenyl)-N′-(2-trifluoromethyl-pyridin-4-yl)-[1,3,5]triazine-2,4-diamine] | 100 to 1000 nM | < 100 nM | 100 to 1000 nM
CC(C)Nc1nc(Nc2ccnc(C(F)(F)F)c2)nc(-c2cc(O)cc(F)c2)n1 [Compound 658, 3-Fluoro-5-[4-isopropylamino-6-(2-trifluoromethyl-pyridin-4-ylamino)-[1,3,5]triazin-2-yl]-phenol] | < 100 nM | < 100 nM | 100 to 1000 nM
CC(C)(C)OC(=O)N1CCC(Nc2nc(Nc3ccccc3)nc(-c3ccccc3)n2)CC1 [Compound 667, 4-(4-Phenyl-6-phenylamino-[1,3,5]triazin-2-ylamino)-piperidine-1-carboxylic acid tert-butyl ester] | 100 to 1000 nM | 100 to 1000 nM | 100 to 1000 nM
